Reference: patent publication US11739120B2, “Water soluble salts of lipidated peptides and methods for preparing and using the same” (Bridge Biotherapeutics, Inc., priority 2018, dated 2023)
In brackets after ≈: the same amount, converted by molar mass. Residues, ends and D or L forms follow the SMILES beside them. *: point of attachment. Palmitoyl = CCCCCCCCCCCCCCCC(=O)*

Assays:
[1] = Approximate solubility of Compound I-1-Acid in different solvents (manual dilution, visual observation); format: physicochemical
Procedure: The solubility test was conducted by manual dilution combined with visual observation. As shown below, Compound I-1-Acid has poor solubility (<1 mg/mL) in most organic solvents and water (Table 1).

[2] = tested on: inflammatory bowel diseases, multiple sclerosis, and septicemia; details: shown in U.S. application Ser. No. 15/205,853; cited from earlier work
[3] = Water solubility of Compound I-1-Acid (further investigation); format: physicochemical
[4] = Solubility of amorphous, Form A and Form E of Compound I-1 in water (shaken at 25° C., HPLC); format: physicochemical; details: for Final pH: mother liquor; for XRPD pattern (wet): residue of the suspension in water
Procedure: The solubility of amorphous, Form A or E of Compound I-1 in water was further studied. Specifically, about 250 mg Compound I-1 in amorphous, Forms A and E were each suspended in a 2 mL HPLC vial with 0.9 mL of water. Each suspension was then shaken at 25° C. under 1000 rpm. The suspensions were analyzed at 1 h and 24 h. In particular, at either the 1 h or 24 h time point, the slurries were centrifuged and analyzed by HPLC. The pH values of the mother liquors were measured, and the residues were characterized by XRPD.

[5] = Hygroscopicity by Dynamic Vapor Sorption (DVS); format: physicochemical
Procedure: A polymorph screening study on Compound I-1-Acid was also carried out, which identified Form 1. […] About 0.25% weight loss from 25° C. to 120° C. and about 0.42% weight loss from 120° C. to 150° C.
Compound I-2 can have different crystalline forms. Two different polymorphs, Forms A2 and B2 were identified. Form A2 can be prepared as follows. Specifically, the white solid of Compound I-2 obtained above was dissolved in 30 mL THF:water (95:5, v/v). […] The suspension was then allowed to be stirred at room temperature overnight. After which, the solid was filtered, washed with THF:water:MTBE=7.5:1:53 (25 mL*3) to remove excess KOH, and then dried under vacuum at 25° C. overnight to provide Form A2.

[6] = Crystalline stability of Form A2 of Compound I-2 on storage; format: physicochemical; details: 25° C./92.5% RH, 40° C./75% RH, 60° C.; 25 days
[7] = Approximate solubility of Compound I-2 (amorphous) at room temperature; format: physicochemical
Procedure: The solubility of Compound I-2 (amorphous) at room temperature was tested using a method similar to those described in Examples 4 and 5. The solubility test results are described in Table 6.

[8] = Kinetic solubility of potassium salt Compound I-2 (further research); format: physicochemical; details: water; 25° C.
[9] = Aqueous solubility of Compound I-1 in the presence of excipients; format: physicochemical; details: approximate solubility by visual observation
[10] = Physical stability of Compound I-1 in meglumine solutions; format: physicochemical; details: for Appearance: precipitation after (storage time) / Appearance: no precipitation until (storage time): vehicle Meglumine, 25° C.
Procedure: In contrast, an aqueous formulation with a concentration of Compound I-1 of 200 mg/mL, without meglumine, started forming precipitates after storing 1 day at 25° C.

[11] = Aqueous solubility of Compound I-1 in the presence of excipients; format: physicochemical; details: 25° C.
Procedure: Specifically, about 50 mg of Compound I-1 was weighed into a 1.5-mL HPLC vial, and 0.2 mL of different media was then added to each vial. The mixtures were shaken at 25° C. under 700 rpm. After 24 hours of shaking, the slurries were centrifuged twice and analyzed. The supernatant was analyzed by HPLC.

[12] = Stabilities of amorphous Compound I-1 (ICH guideline, XRPD); format: physicochemical; details: amorphous; 25±2° C./60±5% RH and 40±2° C./75±5% RH; ICH guideline
Procedure: Stabilities of amorphous Compound I-1 were also conducted according to ICH guideline.

[13] = tested on: DSS induced colitis animal model; experiment: DSS induced colitis animal model; format: in vivo; details: formulations containing Compound I-1
Description: The compound of Formula I (e.g., Formula I-B or I-C, or any one of Compounds I-1 to I-10) described herein is useful for treating various diseases or disorders discussed herein. […] In addition, it was shown that effective concentration of the acid compounds can be retained in a targeted tissue (e.g., small intestinal tissues, large intestinal tissues, appendix tissues) for a sufficient time. […] Those skilled in the art would expect that the salts of Compound I-1-Acid, such as Compound I-1, be similarly efficacious.

[14] = water, 25° C., time point 1 hour
[15] = water, 25° C., time point 24 hours

`CCCCCCCCCCCCCCCC(=O)N1CCC[C@H]1C(=O)N1CCC[C@H]1C(=O)NCC(=O)N[C@@H](Cc1ccc(O)cc1)C(=O)O` [Compound I-1-Acid] (Palmitoyl-PPGY-OH) showed a solubility ([1]; 1,4-Dioxane, room temperature) of less than 1000 µg/mL, a solubility ([1]; 1-butanol, room temperature) of less than 1000 µg/mL and a solubility ([1]; 2-Methyl Tetrahydrofuran, room temperature) of less than 1000 µg/mL. It also gave a solubility ([1]; ACN—H2O (1:1), room temperature) of less than 1000 µg/mL, a solubility ([1]; Acetone-H2O (1:2), room temperature) of less than 1000 µg/mL and a solubility ([1]; Acetone, room temperature) of less than 1000 µg/mL. For the same molecule, the solubility ([1]; Acetonitrile, room temperature) was less than 1000 µg/mL, the solubility ([1]; Cyclohexane, room temperature) was less than 1000 µg/mL and the solubility ([1]; EtOH—H2O (1:1), room temperature) was less than 1000 µg/mL. It also gave a solubility ([1]; EtOH—H2O (3:1), room temperature) of less than 1000 µg/mL, a solubility ([1]; Ethanol, room temperature) of less than 1000 µg/mL and a solubility ([1]; Ethyl acetate, room temperature) of less than 1000 µg/mL. For the same molecule, the solubility ([1]; Heptane, room temperature) was less than 1000 µg/mL, the solubility ([1]; Isopropyl acetate, room temperature) was less than 1000 µg/mL and the solubility ([1]; Isopropyl alcohol, room temperature) was less than 1000 µg/mL. The solubility ([1]; MeOH—H2O (1:1), room temperature) was less than 1000 µg/mL, the solubility ([1]; MeOH—H2O (3:1), room temperature) was less than 1000 µg/mL and the solubility ([1]; Methyl ethyl ketone, room temperature) was less than 1000 µg/mL. It also gave a solubility ([1]; Methyl isobutyl ketone, room temperature) of less than 1000 µg/mL, a solubility ([1]; Methyl t-butyl ether, room temperature) of less than 1000 µg/mL and a solubility ([1]; N-methyl pyrrolidone, room temperature) of 1000 to 5000 µg/mL (≈ 1490 to 7450 µM). For the same molecule, the solubility ([1]; Tetrahydrofuran, room temperature) was less than 1000 µg/mL, the solubility ([1]; Toluene, room temperature) was less than 1000 µg/mL and the solubility ([1]; Water, room temperature) was less than 1000 µg/mL. For the same molecule, the solubility ([1]; most organic solvents and water, ambient laboratory temperature) was less than 1000 µg/mL, the “treating inflammatory bowel diseases, multiple sclerosis, and septicemia” value [2] was “effective” and the solubility [3] was less than 2 µg/mL.
For `CCCCCCCCCCCCCCCC(=O)N1CCC[C@H]1C(=O)N1CCC[C@H]1C(=O)NCC(=O)N[C@@H](Cc1ccc(O)cc1)C(=O)[O-].[Na+]` [Form E] (Palmitoyl-PPGY-OH), the “Final pH” value [4, 14] was 9.08, the “Final pH” value [4, 15] was 8.70 and the “XRPD pattern (wet)” value ([4]; 25° C., time point 1 hour) was “A + D”. For the same molecule, the “Solubility at 25° C.” value ([4]; water, time point 24 hours) was 199400 µg/mL.
For `CCCCCCCCCCCCCCCC(=O)N1CCC[C@H]1C(=O)N1CCC[C@H]1C(=O)NCC(=O)N[C@@H](Cc1ccc(O)cc1)C(=O)[O-].[K+]` [Form A2] (Palmitoyl-PPGY-OH), the “hygroscopicity (DVS)” value [5] was “hygroscopic”, the “water absorption (DVS isotherm)” value [5] was “about 8%” and the “crystalline stability on storage” value [6] was “stable”.
Work on `CCCCCCCCCCCCCCCC(=O)N1CCC[C@H]1C(=O)N1CCC[C@H]1C(=O)NCC(=O)N[C@@H](Cc1ccc(O)cc1)C(=O)[O-].[K+]` [Compound I-2 (amorphous)] (Palmitoyl-PPGY-OH) yielded a solubility ([7]; 1,4-Dioxane) of less than 1000 µg/mL, a solubility ([7]; 1-butanol) of 1000 to 5000 µg/mL and a solubility ([7]; 2-Methyl Tetrahydrofuran) of less than 1000 µg/mL. For the same molecule, the solubility ([7]; Acetone) was less than 1000 µg/mL, the solubility ([7]; Acetone: H2O (97:3)) was less than 1000 µg/mL and the solubility ([7]; Acetonitrile) was less than 1000 µg/mL. For the same molecule, the solubility ([7]; Acetonitrile:H2O (95:5)) was less than 1000 µg/mL, the solubility ([7]; Cyclohexane) was less than 1000 µg/mL and the solubility ([7]; DMF) was 50000 to 100000 µg/mL. The solubility ([7]; DMSO) was 50000 to 100000 µg/mL, the solubility ([7]; Ethanol) was 50000 to 100000 µg/mL and the solubility ([7]; Ethanol:H2O (90:10)) was 25000 to 50000 µg/mL. For the same molecule, the solubility ([7]; Ethanol:H2O (95:5)) was 25000 to 50000 µg/mL, the solubility ([7]; Ethyl acetate) was less than 1000 µg/mL and the solubility ([7]; Heptane) was less than 1000 µg/mL. For the same molecule, the solubility ([7]; Isopropyl acetate) was less than 1000 µg/mL, the solubility ([7]; Isopropyl alcohol) was 1000 to 5000 µg/mL and the solubility ([7]; Methanol) was greater than 100000 µg/mL. The solubility ([7]; Methanol:H2O (90:10)) was greater than 100000 µg/mL, the solubility ([7]; Methanol:H2O (95:5)) was greater than 100000 µg/mL and the solubility ([7]; Methyl ethyl ketone) was less than 1000 µg/mL. The solubility ([7]; Methyl isobutyl ketone) was less than 1000 µg/mL, the solubility ([7]; Methyl t-butyl ether) was less than 1000 µg/mL and the solubility ([7]; N-methyl pyrrolidone) was 50000 to 100000 µg/mL. It also gave a solubility ([7]; Tetrahydrofuran) of less than 1000 µg/mL, a solubility ([7]; Tetrahydrofuran:H2O (95:5)) of 50000 to 100000 µg/mL and a solubility ([7]; Toluene) of less than 1000 µg/mL. For the same molecule, the solubility ([7]; Water) was greater than 100000 µg/mL.
Molecule `CCCCCCCCCCCCCCCC(=O)N1CCC[C@H]1C(=O)N1CCC[C@H]1C(=O)NCC(=O)N[C@@H](Cc1ccc(O)cc1)C(=O)[O-].[K+]` [Compound I-2] (Palmitoyl-PPGY-OH) has a solubility kinetic [8] of 166000 to 200000 µg/mL.
Molecule `CCCCCCCCCCCCCCCC(=O)N1CCC[C@H]1C(=O)N1CCC[C@H]1C(=O)NCC(=O)N[C@@H](Cc1ccc(O)cc1)C(=O)[O-].[Na+]` [Compound I-1, sodium palmitoyl-L-prolyl-L-prolylglycyl-L-tyrosinate] (Palmitoyl-PPGY-OH) has a solubility ([9]; water with HPMC E3 5% (w/v)) of less than 250000 µg/mL, a solubility ([9]; water with HPβCD 5% (w/v)) of less than 250000 µg/mL and a solubility ([9]; water with Meglumine 2% (w/v)) greater than 250000 µg/mL. The solubility ([9]; water with Meglumine 5% (w/v)) was greater than 250000 µg/mL, the solubility ([9]; water with Meglumine:Cremophor RH 40 (1:1, w/w) 10% (w/v)) was greater than 250000 µg/mL and the “physical stability of solution” value ([10]; 200 mg/mL in water with 3%, 4%, or 5% meglumine, stored at 25° C., 13 days) was “good physical stability”. The “physical stability of solution” value ([10]; stored at 5° C., 5 mg/mL solution formulation with meglumine (2-5%)) was “not physically stable”, the “Appearance: precipitation after (storage time)” value (shortened to “Appearance: precipitation”) ([10]; 2%, 200 mg/mL) was “Precipitation after 2 days” and the “Appearance: precipitation” value ([10]; 2%, 250 mg/mL) was “Precipitation after 1 day”. The “Appearance: no precipitation until (storage time)” value (shortened to “Appearance: no precipitation until”) ([10]; 3%, 200 mg/mL) was no less than 3 weeks, the “Appearance: no precipitation until” value ([10]; 4%, 200 mg/mL) was no less than 3 weeks and the “Appearance: no precipitation until” value ([10]; 5%, 200 mg/mL) was no less than 3 weeks. The “Appearance: precipitation” value ([10]; 5%, 250 mg/mL) was “Precipitation after 5 days”, the “Appearance: precipitation” value ([10]; 5%, 300 mg/mL) was “Precipitation after 3 days” and the solubility at 24 h ([11]; water with Cremophor RH 40 1% (w/v), HPLC) was 231000 µg/mL. For the same molecule, the solubility at 24 h ([11]; water with Cremophor RH 40 10% (w/v), HPLC) was 209000 µg/mL, the solubility at 24 h ([11]; water with Meglumine 1% (w/v), HPLC) was 190000 µg/mL and the solubility at 24 h ([11]; water with Meglumine 10% (w/v)) was greater than 270000 µg/mL. It also gave a solubility at 24 h ([11]; water with TWEEN 80 1% (w/v), HPLC) of 215000 µg/mL, a solubility at 24 h ([11]; water with TWEEN 80 10% (w/v), HPLC) of 198000 µg/mL and a solubility kinetic ([4]; water, 25° C.) of roughly 200000 µg/mL. For the same molecule, the “stable for (storage time)” value [12] was no less than 6 months and the total colitis scores [13] was “statistically significant improvement”.
With `CCCCCCCCCCCCCCCC(=O)N1CCC[C@H]1C(=O)N1CCC[C@H]1C(=O)NCC(=O)N[C@@H](Cc1ccc(O)cc1)C(=O)[O-].[Na+]` [Form A] (Palmitoyl-PPGY-OH) the “Final pH” value [4, 14] was 8.91, the “Final pH” value [4, 15] was 8.70 and the “XRPD pattern (wet)” value ([4]; 25° C., time point 1 hour) was “A + D”. For the same molecule, the “Solubility at 25° C.” value ([4]; water, time point 24 hours) was 208600 µg/mL.
